Reference: patent EP4603105A1, “PHARMACEUTICAL COMPOSITION CONTAINING CYCLIC COMPOUND HAVING SELECTIVE KRAS INHIBITORY EFFECT AGAINST HRAS AND NRAS” (CHUGAI SEIYAKU KABUSHIKI KAISHA, priority 2022, dated 2024)

Columns and labels:
HRAS wild-type protein = HRAS wild-type protein (Homo sapiens, UniProt P01112); test: Binding to HRAS by surface plasmon resonance (SPR), KD and KD ratio to KRAS; settings: ratio of KD value for HRAS wild-type protein to KD value for KRAS (SPR)
How it was run: (§1)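 Affinity is measured by surface plasmon resonance at 30°C against captured, GDP-loaded RAS carrying a biotinylated Avi tag. Compounds are titrated by single-cycle kinetics, and KD comes from a 1:1 fit.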

[1] = tested on: human lung cancer strain NCI-H441; assay type: cell-based
How it was run: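 Readout: […] after the ATP-based reagent. Compound: serial dilutions in dimethyl sulfoxide.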

[2] = molecular target: GDP-bound NRAS wild-type protein (Homo sapiens, UniProt P01111); test: Binding to NRAS by surface plasmon resonance (SPR), KD and KD ratio to KRAS; settings: ratio of KD value for GDP-bound NRAS wild-type protein to KD value for KRAS (SPR)
GDP-bound NRAS wild-type protein, sequence (P01111 whole entry): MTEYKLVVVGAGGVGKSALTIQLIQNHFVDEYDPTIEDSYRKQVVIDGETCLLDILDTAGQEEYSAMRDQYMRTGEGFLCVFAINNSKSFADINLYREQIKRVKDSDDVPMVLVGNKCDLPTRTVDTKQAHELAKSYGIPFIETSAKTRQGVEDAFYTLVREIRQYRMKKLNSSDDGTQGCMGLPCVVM
How it was run: as §1

HRAS wild-type protein, sequence (P01112 whole entry): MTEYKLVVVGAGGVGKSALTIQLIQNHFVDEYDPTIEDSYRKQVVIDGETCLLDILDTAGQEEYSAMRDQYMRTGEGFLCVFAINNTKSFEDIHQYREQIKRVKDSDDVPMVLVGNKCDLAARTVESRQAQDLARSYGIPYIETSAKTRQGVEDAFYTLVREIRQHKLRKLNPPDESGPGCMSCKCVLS

`CCO[C@@H]1C[C@H]2C(=O)NC3(CCC3)C(=O)N(C)[C@@H](C3CCCC3)C(=O)N(C)[C@H](C(=O)N3CCOCC3)CC(=O)N(C)[C@@H](CC3CC3)C(=O)N[C@@H]([C@@H](C)CC)C(=O)N(C)CC(=O)N(C)[C@H]3C/C=C\CCN(C3=O)[C@@H](Cc3ccc(F)cc3)C(=O)N(C)CC(=O)N[C@@H](CCc3cc(F)c(C(F)(F)F)c(F)c3)C(=O)N2C1` [PP1496] was tested, and the “HRAS /KRAS” value (HRAS wild-type protein) was “B (a compound having 3 or more and less than 10 is denoted as B)”, the IC50 [1] was 36.7 nM and the “NRAS /KRAS” value [2] was “A (a compound having 10 or more and less than 20 is denoted as A)”.
With `CC[C@H](C)[C@@H]1NC(=O)[C@H](CC2CC2)N(C)C(=O)C[C@@H](C(=O)N(C)C)N(C)C(=O)[C@H](C2CCCC2)N(C)C(=O)C2(CCC2)NC(=O)[C@@H]2C[C@@H](F)CN2C(=O)[C@H](CCc2cc(F)c(C(F)(F)F)c(F)c2)NC(=O)CN(C)C(=O)[C@H](Cc2ccc(C(F)(F)F)cc2)N2CC/C=C\C[C@@H](C2=O)N(C)C(=O)CN(C)C1=O` [PP1497] the “HRAS /KRAS” value (HRAS wild-type protein) was “A (a compound having 10 or more and less than 20 is denoted as A)”, the IC50 [1] was 10.7 nM and the “NRAS /KRAS” value [2] was “A (a compound having 10 or more and less than 20 is denoted as A)”.
In the case of `CC[C@H](C)[C@@H]1NC(=O)[C@H](CC2CC2)N(C)C(=O)C[C@@H](C(=O)N(C)C)N(C)C(=O)[C@H](C2CCCC2)N(C)C(=O)C2(CCC2)NC(=O)[C@@H]2C[C@@H](C(F)(F)F)CN2C(=O)[C@H](CCc2cc(F)c(C(F)(F)F)c(F)c2)NC(=O)CN(C)C(=O)[C@H](Cc2ccc(C(F)(F)F)cc2)N2CC/C=C\C[C@@H](C2=O)N(C)C(=O)CN(C)C1=O` [PP1498], the “HRAS /KRAS” value (HRAS wild-type protein) is reported as “A (a compound having 10 or more and less than 20 is denoted as A)”, the IC50 [1] is reported as 10.3 nM and the “NRAS /KRAS” value [2] is reported as “A (a compound having 10 or more and less than 20 is denoted as A)”.
With `CC[C@H](C)[C@@H]1NC(=O)[C@H](CC2CC2)N(C)C(=O)C[C@@H](C(=O)N(C)C)N(C)C(=O)[C@H](C2CCCC2)N(C)C(=O)C2(CCC2)NC(=O)[C@@H]2C[C@H](C)CN2C(=O)[C@H](CCc2cc(F)c(C(F)(F)F)c(F)c2)NC(=O)CN(C)C(=O)[C@H](Cc2ccc(C(F)(F)F)cc2)N2CC/C=C\C[C@@H](C2=O)N(C)C(=O)CN(C)C1=O` [PP1499] the “HRAS /KRAS” value (HRAS wild-type protein) was “B (a compound having 3 or more and less than 10 is denoted as B)”, the IC50 [1] was 5.5 nM and the “NRAS /KRAS” value [2] was “A (a compound having 10 or more and less than 20 is denoted as A)”.
With `CC[C@H](C)[C@@H]1NC(=O)[C@H](CC2CC2)N(C)C(=O)C[C@@H](C(=O)N(C)C)N(C)C(=O)[C@H](C2CCCC2)N(C)C(=O)C2(CCC2)NC(=O)[C@@H]2CC(F)(F)CN2C(=O)[C@H](CCc2cc(F)c(C(F)(F)F)c(F)c2)NC(=O)CN(C)C(=O)[C@H](Cc2ccc(C(F)(F)F)cc2)N2CC/C=C\C[C@@H](C2=O)N(C)C(=O)CN(C)C1=O` [PP1500] the “HRAS /KRAS” value (HRAS wild-type protein) was “A (a compound having 10 or more and less than 20 is denoted as A)”, the IC50 [1] was 6.9 nM and the “NRAS /KRAS” value [2] was “A (a compound having 10 or more and less than 20 is denoted as A)”.
`CC[C@H](C)[C@@H]1NC(=O)[C@H](CC2CC2)N(C)C(=O)C[C@@H](C(=O)N(C)C)N(C)C(=O)[C@H](C2CCCC2)N(C)C(=O)C2(CC(C)(C)C2)NC(=O)[C@@H]2C[C@@H](F)CN2C(=O)[C@H](CCc2cc(F)c(C(F)(F)F)c(F)c2)NC(=O)CN(C)C(=O)[C@H](Cc2ccc(C(F)(F)F)cc2)N2CC/C=C\C[C@@H](C2=O)N(C)C(=O)CN(C)C1=O` [PP1501] was tested, and the “HRAS /KRAS” value (HRAS wild-type protein) was “A (a compound having 10 or more and less than 20 is denoted as A)”, the IC50 [1] was 1.5 nM and the “NRAS /KRAS” value [2] was “A (a compound having 10 or more and less than 20 is denoted as A)”.
With `CC[C@H](C)[C@@H]1NC(=O)[C@H](CC2CCCC2)N(C)C(=O)C[C@@H](C(=O)N(C)C)N(C)C(=O)[C@H](C2CCCC2)N(C)C(=O)C2(CCC2)NC(=O)[C@@H]2C[C@@H](F)CN2C(=O)[C@H](CCc2cc(F)c(C(F)(F)F)c(F)c2)NC(=O)CN(C)C(=O)[C@H](Cc2ccc(C(F)(F)F)cc2)N2CC/C=C\C[C@@H](C2=O)N(C)C(=O)CN(C)C1=O` [PP1502] the “HRAS /KRAS” value (HRAS wild-type protein) was “A (a compound having 10 or more and less than 20 is denoted as A)”, the IC50 [1] was 2 nM and the “NRAS /KRAS” value [2] was “A (a compound having 10 or more and less than 20 is denoted as A)”.
`CC[C@H](C)[C@@H]1NC(=O)[C@H](CC2CC2)N(C)C(=O)C[C@@H](C(=O)N2CCCC2)N(C)C(=O)[C@H](C2CCCC2)N(C)C(=O)C2(CCCC2)NC(=O)[C@@H]2C[C@@H](F)CN2C(=O)[C@H](CCc2cc(F)c(C(F)(F)F)c(F)c2)NC(=O)CN(C)C(=O)[C@H](Cc2ccc(C(F)(F)F)cc2)N2CC/C=C\C[C@@H](C2=O)N(C)C(=O)CN(C)C1=O` [PP1503] was tested, and the “HRAS /KRAS” value (HRAS wild-type protein) was “A (a compound having 10 or more and less than 20 is denoted as A)”, the IC50 [1] was 3.8 nM and the “NRAS /KRAS” value [2] was “A (a compound having 10 or more and less than 20 is denoted as A)”.
For `CC[C@H](C)[C@@H]1NC(=O)[C@H](CC2CC2)N(C)C(=O)C[C@@H](C(=O)N(C)C)N(C)C(=O)[C@H](C2CCCC2)N(C)C(=O)C2(CC(C)(C)C2)NC(=O)[C@@H]2C[C@@H](C(F)(F)F)CN2C(=O)[C@H](CCc2cc(F)c(C(F)(F)F)c(F)c2)NC(=O)CN(C)C(=O)[C@H](Cc2ccc(C(F)(F)F)cc2)N2CC/C=C\C[C@@H](C2=O)N(C)C(=O)CN(C)C1=O` [PP1504], the “HRAS /KRAS” value (HRAS wild-type protein) was “A (a compound having 10 or more and less than 20 is denoted as A)”, the IC50 [1] was 38 nM and the “NRAS /KRAS” value [2] was “A (a compound having 10 or more and less than 20 is denoted as A)”.
`CC[C@H](C)[C@@H]1NC(=O)[C@H](CC2CCCC2)N(C)C(=O)C[C@@H](C(=O)N(C)C)N(C)C(=O)[C@H](C2CCCC2)N(C)C(=O)C2(CCC2)NC(=O)[C@@H]2C[C@@H](C(F)(F)F)CN2C(=O)[C@H](CCc2cc(F)c(C(F)(F)F)c(F)c2)NC(=O)CN(C)C(=O)[C@H](Cc2ccc(C(F)(F)F)cc2)N2CC/C=C\C[C@@H](C2=O)N(C)C(=O)CN(C)C1=O` [PP1505] was tested, and the “HRAS /KRAS” value (HRAS wild-type protein) was “A (a compound having 10 or more and less than 20 is denoted as A)”, the IC50 [1] was 4 nM and the “NRAS /KRAS” value [2] was “A (a compound having 10 or more and less than 20 is denoted as A)”.
With `CC[C@H](C)[C@@H]1NC(=O)[C@H](CC2CC2)N(C)C(=O)C[C@@H](C(=O)N2CCCC2)N(C)C(=O)[C@H](C2CCCC2)N(C)C(=O)C2(CCCC2)NC(=O)[C@@H]2C[C@@H](C(F)(F)F)CN2C(=O)[C@H](CCc2cc(F)c(C(F)(F)F)c(F)c2)NC(=O)CN(C)C(=O)[C@H](Cc2ccc(C(F)(F)F)cc2)N2CC/C=C\C[C@@H](C2=O)N(C)C(=O)CN(C)C1=O` [PP1506] the “HRAS /KRAS” value (HRAS wild-type protein) was “A (a compound having 10 or more and less than 20 is denoted as A)”, the IC50 [1] was 73.4 nM and the “NRAS /KRAS” value [2] was “AA (a compound having 20 or more is denoted as AA)”.
For `CC[C@H](C)[C@@H]1NC(=O)[C@H](CC2CC2)N(C)C(=O)C[C@@H](C(=O)N(C)C)N(C)C(=O)[C@H](C2CCCC2)N(C)C(=O)C2(CC(C)(C)C2)NC(=O)[C@@H]2C[C@@H](C(F)(F)F)CN2C(=O)[C@H](CCc2cc(F)c(C(F)(F)F)c(F)c2)NC(=O)CN(C)C(=O)[C@H](Cc2ccc(F)cc2)N2CC/C=C\C[C@@H](C2=O)N(C)C(=O)CN(C)C1=O` [PP1507], the “HRAS /KRAS” value (HRAS wild-type protein) was “A (a compound having 10 or more and less than 20 is denoted as A)”, the IC50 [1] was 16.2 nM and the “NRAS /KRAS” value [2] was “A (a compound having 10 or more and less than 20 is denoted as A)”.
`CC[C@H](C)[C@@H]1NC(=O)[C@H](CC2CC2)N(C)C(=O)C[C@@H](C(=O)N2CCCC2)N(C)C(=O)[C@H](C2CCCC2)N(C)C(=O)C2(CCC2)NC(=O)[C@@H]2C[C@H](C)CN2C(=O)[C@H](CCc2cc(F)c(C(F)(F)F)c(F)c2)NC(=O)CN(C)C(=O)[C@H](Cc2ccc(C(F)(F)F)cc2)N2CC/C=C\C[C@@H](C2=O)N(C)C(=O)CN(C)C1=O` [PP1510] was tested, and the “HRAS /KRAS” value (HRAS wild-type protein) was “A (a compound having 10 or more and less than 20 is denoted as A)”, the IC50 [1] was 34.5 nM and the “NRAS /KRAS” value [2] was “AA (a compound having 20 or more is denoted as AA)”.
`CC[C@H](C)[C@@H]1NC(=O)[C@H](CC2CC2)N(C)C(=O)C[C@@H](C(=O)N(C)C)N(C)C(=O)[C@H](C2CCCC2)N(C)C(=O)C2(CCCC2)NC(=O)[C@@H]2C[C@H](C)CN2C(=O)[C@H](CCc2cc(F)c(C(F)(F)F)c(F)c2)NC(=O)CN(C)C(=O)[C@H](Cc2ccc(C(F)(F)F)cc2)N2CC/C=C\C[C@@H](C2=O)N(C)C(=O)CN(C)C1=O` [PP1511] was tested, and the “HRAS /KRAS” value (HRAS wild-type protein) was “A (a compound having 10 or more and less than 20 is denoted as A)”, the IC50 [1] was 13.7 nM and the “NRAS /KRAS” value [2] was “AA (a compound having 20 or more is denoted as AA)”.
In the case of `CC[C@H](C)[C@@H]1NC(=O)[C@H](CC2CC2)N(C)C(=O)C[C@@H](C(=O)N2CCCC2)N(C)C(=O)[C@H](C2CCCC2)N(C)C(=O)C2(CCC2)NC(=O)[C@@H]2CC(F)(F)CN2C(=O)[C@H](CCc2cc(F)c(C(F)(F)F)c(F)c2)NC(=O)CN(C)C(=O)[C@H](Cc2ccc(C(F)(F)F)cc2)N2CC/C=C\C[C@@H](C2=O)N(C)C(=O)CN(C)C1=O` [PP1512], the “HRAS /KRAS” value (HRAS wild-type protein) is reported as “A (a compound having 10 or more and less than 20 is denoted as A)”, the IC50 [1] is reported as 16.9 nM and the “NRAS /KRAS” value [2] is reported as “AA (a compound having 20 or more is denoted as AA)”.
`CC[C@H](C)[C@@H]1NC(=O)[C@H](CC2CC2)N(C)C(=O)C[C@@H](C(=O)N(C)C)N(C)C(=O)[C@H](C2CCCC2)N(C)C(=O)C2(CCCC2)NC(=O)[C@@H]2CC(F)(F)CN2C(=O)[C@H](CCc2cc(F)c(C(F)(F)F)c(F)c2)NC(=O)CN(C)C(=O)[C@H](Cc2ccc(C(F)(F)F)cc2)N2CC/C=C\C[C@@H](C2=O)N(C)C(=O)CN(C)C1=O` [PP1513] was tested, and the “HRAS /KRAS” value (HRAS wild-type protein) was “A (a compound having 10 or more and less than 20 is denoted as A)”, the IC50 [1] was 8.3 nM and the “NRAS /KRAS” value [2] was “A (a compound having 10 or more and less than 20 is denoted as A)”.
